Results published in patent publication US8177896B2, “Antifouling furan-2-one derivatives” (The Hong Kong University of Science and Technology, priority 2008, dated 2012).
Converted amounts (≈) assume the structure as drawn. Read-outs that look alike come from different tables or passages of the source.

Columns and labels:
[1] = Larval settlement bioassay, barnacle Balanus amphitrite cyprids; format: in vivo; settings: Balanus amphitrite (barnacle), cyprid larvae, in vivo, other: immersion, sample added to the seawater in the well
Method: (§1) The nauplii were reared in freshly filtered nature seawater (FSW, 0.45 μm, 32 S salinity) and fed with Chaetoceros gracilis Schutt at 24° C. in the Coastal Marine Laboratory the Hong Kong University of Science and Technology (HKUST). Cyprids were stored for 2 days at 8° C. (aged cyprids) prior to being used in the bioassays. Ten μl of each test sample dissolved in dimethyl sulfoxide (DMSO) were transferred into a well in 24-well polystyrene plate after the addition of 1 ml of FSW. The control wells contained 1 ml of FSW and 10 μl of DMSO. About 15 cyprids were added in each well with triplicate samples being tested.

[2] = test system: Balanus amphitrite larvae; assay: as above; format: in vivo; settings: for concentration at which significant inhibition of larval settlement was observed / inhibition of larval settlement (in words): B. amphitrite; for concentration at which significant inhibition of larval settlement was observed: compared with controls; for toxicity rating from LC50/EC50 ratio: according to Avelin et al. 1993 and Rittschof et al. 1994, ratios for all tested larvae
Method: as §1

[3] = Larval settlement bioassay, Hydroides elegans competent larvae; format: in vivo; settings: competent larvae, in vivo, other: immersion, sample added to the seawater in the well; Hydroides elegans; highest concentration examined causing <50% death of larvae
Method: (§2) The 24-well plates were incubated at 28° C. for 24 h under a 15 h light/9 h dark photoperiod. The percentage of larval settlement and larval mortality was determined by counting the settled, live individuals under a dissecting microscope and expressing the result as a proportion of the total number of larvae in the well.

Hydroides elegans larvae = assay: as above; format: in vivo; settings: for concentration at which significant inhibition of larval settlement was observed / inhibition of larval settlement (in words): H. elegans; for concentration at which significant inhibition of larval settlement was observed: compared with controls; for EC50: Hydroides elegans, 24 h, mean of at least three replicates, read-out: EC50 against larval settlement
Method: as §2

Bugula neritina larvae = assay: Larval settlement bioassay, Bugula neritina; settings: for inhibition of larval settlement (in words): B. neritina
in vivo = settings: Bugula neritina, larvae
[4] = Degradation in buffer solutions and seawater; format: physicochemical
[5] = Table 3, Balanus amphitrite larvae
[6] = Amphibalanus amphitrite, Table 3, Balanus amphitrite larvae, value ± spread, read-out: EC50
[7] = Balanus amphitrite, highest concentration examined causing <50% death of larvae
[8] = Amphibalanus amphitrite, 24 h, Balanus amphitrite, 24 h, mean of at least three replicates, read-out: EC50 against larval settlement
[9] = Table 3, Balanus amphitrite larvae, value ± spread

Structure (SMILES)	LC50 at 24 h [1, 5] [µg/mL]	EC50 [2, 6] [µg/mL]	LC50 at 24 h [3] [µg/mL]	concentration at which significant inhibition of larval settlement was observed (Hydroides elegans larvae) [µg/mL]	EC50 (Hydroides elegans larvae) [µg/mL]	LC50 at 24 h [1, 7] [µg/mL]	EC50 [2, 8] [µg/mL]	LC50 [2, 5] [µg/mL]	EC50 [2, 9] [µg/mL]	further results
CC(O)C(C)(O)CCCC1C=CC(=O)O1 (single isomer, unassigned) [Compound 11]	> 100	> 100								
CCC(C)(O)CCCCCC1C=CC(=O)O1 (centres unmarked) [Compound 1]	> 100	14.8 ± 5.54 (≈ 65.4 µM)	> 100	10	12 (≈ 53 µM)	> 100	14.8 (≈ 65.4 µM)			concentration at which significant inhibition of larval settlement was observed [2]: 10 µg/mL
CC(O)C(C)CCCCCC1C=CC(=O)O1 (centres unmarked) [Compound 2]	> 100	9.65 ± 1.5 (≈ 42.6 µM)	> 100	5	4.4 (≈ 19.4 µM)	> 100	9.65 (≈ 42.6 µM)			concentration at which significant inhibition of larval settlement was observed [2]: 10 µg/mL
CC(=O)C(C)CCCCCC1C=CC(=O)O1 (centres unmarked) [Compound 3]	> 100	8.67 ± 2.73 (≈ 38.7 µM)	> 100	5	5.6 (≈ 25 µM)	> 100	8.67 (≈ 38.7 µM)			concentration at which significant inhibition of larval settlement was observed [2]: 25 µg/mL
CC(C)(O)CCCCCC1C=CC(=O)O1 (centres unmarked) [Compound 4]	> 140	> 100	> 40	8	12.7 (≈ 59.8 µM)	> 140	> 100			inhibition of larval settlement (in words) [2]: efficient against the larval settlements especially for B. amphitrite
CC(CCCCCC1C=CC(=O)O1)C(C)OC1CCCCO1 (centres unmarked) [Compound 5]	> 80	3.6 ± 0.56 (≈ 11.6 µM)	> 100		6.4 (≈ 20.6 µM)	> 80	3.6 (≈ 11.6 µM)			inhibition of larval settlement (in words) (Hydroides elegans larvae): distinct inhibition effects; inhibition of larval settlement (in words) (Bugula neritina larvae): distinct inhibition effects; inhibition of larval settlement (in words) [2]: distinct inhibition effects; toxicity rating from LC50/EC50 ratio [2]: nontoxic or low toxic compound
CCCCCCCCC1C=CC(=O)O1 (centres unmarked) [Compound 6, 5-octylfuran-2-one]	> 50	0.52 ± 0.06 (≈ 2.65 µM)	> 2		0.017 (≈ 0.0866 µM)	> 50	0.52 (≈ 2.65 µM)			LC50 (in vivo): > 50 µg/mL; degradation in natural seawater [4]: can be easily degradated in natural seawater; inhibition of larval settlement (in words) (Hydroides elegans larvae): distinct inhibition effects; inhibition of larval settlement (in words) (Bugula neritina larvae): distinct inhibition effects; EC50 against larval settlement (Bugula neritina larvae; Bugula neritina, mean of at least three replicates): 0.2 µg/mL (≈ 1.02 µM); inhibition of larval settlement (in words) [2]: distinct inhibition effects; toxicity rating from LC50/EC50 ratio [2]: nontoxic or low toxic compound
CC(O)C(C)(O)CCCC1C=CC(=O)O1 (centres unmarked) [Compound 7]								>25	4.82 ± 1.25 (≈ 22.5 µM)	
CC(O)C(C)(O)CCCC1C=CC(=O)O1 (centres unmarked) [Compound 8]								>100	>100	
CC(O)C(C)(O)CCCC1C=CC(=O)O1 (centres unmarked) [Compound 9]								>100	>100	
CC(O)C(C)(O)CCCC1C=CC(=O)O1 (centres unmarked) [Compound 10]								>100	>100	
